The values that follow come from patent US5886022A, “Substituted cycloalkanecarboxylic acid derivatives as matrix metalloprotease inhibitors” (priority 1997, dated 1999).

Common to all, as to format: biochemical
The target of experiment [1] is T1, MMP-3 (recombinant truncated stromelysin) (Homo sapiens, UniProt P08254).
T1 construct: made in house; host or cells: E. coli
In words: Primary Thiopeptilide MMP-3 Inhibition Assay. The settings on record: for IC50: x (n): average IC50 of n separate determinations.
Experimental: Reaction mixtures for inhibitor studies contained 1 mM Ac-Pro-Leu-Gly-S-Leu-Leu-Gly-o-ethyl thiopeptolide substrate dissolved in HEPES assay buffer pH 6.5, along with 0.5 mM 5,5'-dithio-bis-(nitrobenzoicacid), drug concentrations ranging from 0.5 nM to 5 μM and activated enzyme (10-100 ng) in a total volume of 130 μl. […] Enzyme mediated substrate hydrolysis was corrected for non-enzymatic hydrolysis of the substrate by the subtraction of values from control samples incubated in the absence of enzyme. Drug efficacy was reported as the percent inhibition of enzyme activity calculated as:
Enzyme: recombinant stromelysin expressed in E.coli and purified as described above. […] The protocols for the assay of compounds as stromelysin inhibitors was the same as that used for MMP-9 except that the assay buffer was 50 mM MES, pH 6.5 containing 150mM NaCl, 10 mM CaCl2, 0.005% Brij, and 1% DMSO.
All IC50 values are expressed as nM. […] When "x (n)" is shown, x is the erage IC50 value of n separate determinations.

Experiment [2] concerns the target T2, MMP-9 (Gelatinase-B, 92 kDa) (Homo sapiens, UniProt P14780).
T2 construct: from tissue; host or cells: human polymorphonuclear leukocytes from fresh whole blood (New York Blood Center), PMA-stimulated supernatant, purified
In words: Thiopeptilide MMP-9 Inhibition Assay. The settings on record: for IC50: x (n): average IC50 of n separate determinations. As for the experimental part:
MMP-9 was isolated modifying the previously described procedures of Hibbs et al (J. Biol. Chem., 260, 2493-2500, 1984) and Wilhelm et al (J. Biol. Chem., 264, 17213-17221, 1989). Briefly, polymorphonuclear leukocytes (PMN) preparations were isolated as described above from 3 or more units of freshly drawn whole blood obtained from the New York Blood Center (N.Y., N.Y.). Cells were resuspended in phosphate buffered saline (PBS) containing 100 ng/ml phorbol myristate acetate (PMA) in the presence of 50 mM di-isopropylfluorophospate (DFP), 1 μg/ml leupeptin and aprotinin, and 1 mg/ml catalase for 1 hr at 37° C. Supernatants were collected by centrifugation (300×g) and the samples were frozen at -70° C. All chromatographic methods were performed at 4° C. Thawed samples were concentrated 5-fold using an Amicon chamber equipped with a YM-10 membrane. The concentrate was pressure dialyzed against 0.02M Tris-HCl, 0.1M NaCl, 1 mM CaCl2, 1 μM ZnCl2, 0.001 % Brij-35, 0.02% sodium azide (NaN3), pH 7.5 and applied to DEAE ion exchange chromatography resin which was previously equilibrated with the same buffer at a flow rate of 0.4 ml/min. The column was extensively washed with the same buffer and gelatinase was eluted as 4 ml fractions from the column with 0.02M Tris-HCl, 0.5M NaCl, 1 mM CaCl2, 1 μM ZnCl2, 0.001% Brij-35, 0.02% NaN3, pH 7.5. Gelatinase containing fractions were observed by gelatin zymography (see below), loaded onto a gelatin agarose affinity resin and washed with the same buffer. Gelatinase activity was eluted at a flow rate of 1 ml/min from the column as 1 ml fractions with 0.02M Tris-HCl, 1M NaCl, 1 mM CaCl2, 1 μmM ZnCl2, 0.001% Brij-35, 0.02% NaN3, pH 7.5 containing 10% dimethyl sulfoxide (DMSO). The fractions containing gelatinase activity were pooled and dialyzed against 0.005M Tris-HCl, 5 mM NaCl, 0.5 mM CaCl2, 0.1 μM ZnCl2, 0.001% Brij-35, pH 7.4. The protein content associated with material was determined with a micro-BCA assay (Pierce, Rockford, Ill.), lyophilized and reconstituted to a desired working concentration (100 μg/ml).
Progelatinase (10 μg/ml) isolated from human PMNs (described above) was activated with 1 mM 4-aminophenylmercuric acetate (APMA) in 50 mM Tris-HCl, 200 mM NaCl, 5 mM CaCl2, 0.001% Brij-35, pH 7.6 at 37° C. for 16 hr. The activated enzyme was dialyzed against the above buffer to remove APMA. The thiopeptolide spectrophotometric ( Weingarten, H., Feder, J., Anal. Biochem., 147, 437-440, 1985) substrate hydrolysis assay was modified to a micro-assay format. Spectrophotometric analysis of MMP-9 activity required a 1000-fold dilution of activated MMP-9 (10 ng/ml, 0.14 nM) in assay buffer comprised of 50 mM 4-(2-hydroxyethyl)1-piperazine ethane sulfonic acid (HEPES), 0.15M NaCl, 10 mM CaCl2, 0.001% Brij-35, pH 6.5 between 100 and 1000-fold for enzyme assays. Reaction mixtures for inhibitor studies contained 1 mM Ac-Pro-Leu-Gly-S-Leu-Leu-Gly-o-ethyl thiopeptolide substrate dissolved in HEPES assay buffer pH 6.5, along with 0.5 mM 5,5'-dithio-bis-(nitrobenzoicacid), drug concentrations ranging from 0.5 nM to 5 μM and activated enzyme (10-100 ng) in a total volume of 130 μl. The hydrolysis of substrate was monitored at 405 nm using an automated plate reader (Molecular Devices, Menlo Park, Calif.). Enzyme mediated substrate hydrolysis was corrected for non-enzymatic hydrolysis of the substrate by the subtraction of values from control samples incubated in the absence of enzyme. Drug efficacy was reported as the percent inhibition of enzyme activity calculated as:
(Control Values-Treated Values)/Control Values×100
Two way analysis of variance was used to determine significance between individual test groups.
All IC50 values are expressed as nM. When "I=x %" is shown, x presents the % inhibition at 5 μM. When "x (n)" is shown, x is the erage IC50 value of n separate determinations.

A further experiment concerns MMP. As to the kind of experiment: MMP inhibitory activity.

Usually IC50 stands for the concentration needed to halve the response being measured. In general, inhibition refers to the share of the control response that was lost under treatment.

Counter-ions that a name gives are not always drawn.

T1 sequence (P08254 100-274 limits assumed): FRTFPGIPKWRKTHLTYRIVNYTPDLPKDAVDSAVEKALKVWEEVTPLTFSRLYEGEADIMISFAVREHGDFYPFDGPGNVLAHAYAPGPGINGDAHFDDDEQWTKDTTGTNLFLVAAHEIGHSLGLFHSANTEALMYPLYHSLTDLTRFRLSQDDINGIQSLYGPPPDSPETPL
T2 sequence (P14780 107-707 limits assumed): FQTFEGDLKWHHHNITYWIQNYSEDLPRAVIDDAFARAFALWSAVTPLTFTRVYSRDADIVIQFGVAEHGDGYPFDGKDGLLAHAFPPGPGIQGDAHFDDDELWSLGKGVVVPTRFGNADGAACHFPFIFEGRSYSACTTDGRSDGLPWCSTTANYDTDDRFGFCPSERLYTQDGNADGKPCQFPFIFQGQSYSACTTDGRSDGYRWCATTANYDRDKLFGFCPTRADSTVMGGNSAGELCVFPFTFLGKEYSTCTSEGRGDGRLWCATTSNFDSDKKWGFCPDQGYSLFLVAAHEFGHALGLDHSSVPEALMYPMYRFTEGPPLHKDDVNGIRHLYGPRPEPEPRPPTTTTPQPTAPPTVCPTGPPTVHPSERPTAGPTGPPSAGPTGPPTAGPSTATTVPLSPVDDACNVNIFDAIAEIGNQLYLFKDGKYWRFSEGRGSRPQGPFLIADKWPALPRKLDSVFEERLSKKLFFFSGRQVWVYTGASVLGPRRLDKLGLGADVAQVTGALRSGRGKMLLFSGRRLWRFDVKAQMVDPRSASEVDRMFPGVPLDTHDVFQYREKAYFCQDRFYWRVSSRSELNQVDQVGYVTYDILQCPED

For the compound `CCOc1ccc(-c2ccc(C(=O)[C@@H]3CC[C@H](Cc4ccccc4)[C@H]3C(=O)O)cc2)cc1` (relative stereo) [Example 226, Cyclopentanecarboxylic acid, 2-[(4'-ethoxy[1,1'-biphenyl]-4-yl)carbonyl]-5-(phenylmethyl)-, (1α,2β,5β)-], the IC50 in experiment [1] worked out at 98 nM.
Turning to `CCOc1ccc(-c2ccc(C(=O)[C@@H]3CC[C@H](Sc4ccccc4)[C@H]3C(=O)O)cc2)cc1` (relative stereo) [Example 224, Cyclopentanecarboxylic acid, 2-[(4'-ethoxy[1,1'-biphenyl]-4-yl)carbonyl]-5-(phenylthio)-, (1α,2β,5β)-], in experiment [1], the IC50 was found to be 36 nM.
With `O=C(CC(CCCc1ccccc1)C(=O)O)c1ccc(-c2ccccc2)cc1` (stereo not drawn) [Example 91, [1,1'-Biphenyl]-4-butanoic acid, γ-oxo-α-(3-phenylpropyl)-], the IC50 in experiment [2] was 2800 nM. The “MMP inhibitory activity / potency in words” value in the experiment on MMP was “low potency”.
`CCN(CC)CCC(CC(=O)c1ccc(-c2ccc(Cl)cc2)cc1)C(=O)O` (stereo not drawn) [Example 191, [1,1'-Biphenyl]-4-butanoic acid, 4'-chloro-α-[2-(diethylamino)ethyl]-γ-oxo-,hydrochloride]: the inhibition at 5 µM in experiment [2] (at 5 μM, read-out: MMP-9 Thiopeptilide % inhibition (I)) was 31%.
Regarding `CCOc1ccc(-c2ccc(C(=O)[C@@H]3CC[C@@H](Sc4ccccc4)[C@H]3C(=O)O)cc2)cc1` (relative stereo) [Example 225, Cyclopentanecarboxylic acid, 2-[(4'-ethoxy[1,1'-biphenyl]-4-yl)carbonyl]-5-(phenylthio)-, (1α,2β,5α)-], the IC50 in experiment [1] came to 66 nM.
As to `CC(=O)SC(CC(=O)c1ccc(Oc2ccc(Cl)cc2)cc1)C(=O)O` (stereo not drawn) [Example 183, Benzenebutanoic acid, α-(acetylthio)-4-(4-chlorophenoxy)-γ-oxo-, reference compound], the “MMP inhibitory activity / potency in words” value in the experiment with MMP is listed as “very low potency”.
In experiment [2], `O=C(O)[C@@H]1[C@@H](C(=O)c2ccc(-c3ccc(Cl)cc3)cc2)CC[C@H]1Sc1ccccc1` (single isomer, unassigned) [Example 212, Cyclopentanecarboxylic acid, 2-[(4'-chloro[,1'-biphenyl]-4-yl)carbonyl]-5-(phenylthio)-, [1R-(1α,2β,5β)]-] showed an IC50 of 640 nM.
Regarding `CC(C)CC(CC(O)c1ccc(-c2ccc(Cl)cc2)cc1)C(=O)O` (stereo not drawn) [Example 27, [1,1'-Biphenyl]-4-butanoic acid, 4'-chloro-γ-hydroxy-α-(2-methylpropyl)-], the IC50 in experiment [1] came out at 5000 nM.
With `O=C(O)[C@@H]1[C@H](Sc2ccc(Cl)cc2)CC[C@H]1C(=O)c1ccc(-c2ccc(Cl)cc2)cc1` (relative stereo) [Example 223, Cyclopentanecarboxylic acid, 2-[(4'-chloro[1,1'-biphenyl]-4-yl)carbonyl]-5-[(4-chlorophenyl)thio]-, (1α,2β,5α)-], the values for the IC50 in experiment [1] and in experiment [2] were 340 nM and 700 nM, respectively.
For `O=C(C[C@@H](C[S+]([O-])c1ccccc1)C(=O)O)c1ccc(-c2ccc(Cl)cc2)cc1` (stereo partly drawn) [Example 126, [1,1'-Biphenyl]-4-butanoic acid, 4'-chloro-γ-oxo-α-[(phenylsulfmyl)methyl]-,stereoisomer], in experiment [1] (at 5 μM), the “MMP-3 Thiopeptilide % inhibition (I)” value is listed as 17%.
Regarding `O=C(O)[C@@H]1CC[C@H]1C(=O)c1ccc(-c2ccc(Cl)cc2)cc1` (relative stereo) [Example 206, Cyclobutanecarboxylic acid, 2-[(4'-chloro[1,1'-biphenyl]-4-yl)carbonyl]-, trans-], the “MMP inhibitory activity / potency in words” value with MMP is “much more active”.
On to `Cc1cc(C)cc(SCC(CC(=O)c2ccc(-c3ccc(Cl)cc3)cc2)C(=O)O)c1` (stereo not drawn) [Example 165, [1,1'-Biphenyl]-4-butanoic acid, 4'-chloro-α-[[(3,5-dimethylphenyl)thio]methyl]-γ-oxo-], for which, in experiment [1], the IC50 was found to be 1600 nM.
Consider `CC(C)CC(CC(=O)c1ccc(-c2ccccc2)cc1)C(=O)O` (stereo not drawn) [Example 13, [1,1'-Biphenyl]-4-butanoic acid, α-(2-methylpropyl)-γ-oxo-], for which the “MMP inhibitory activity / potency in words” value in the experiment with MMP is “low potency”.
Turning to `O=C(CC(CCN1C(=O)c2ccccc2C1=O)C(=O)O)c1ccc(-c2ccc(Cl)cc2)cc1` (stereo not drawn) [Example 194, 2H-Isoindole-2-butanoic acid, α-[2-(4'-chloro[1,1'-biphenyl]-4-yl)-2-oxoethyl]-1,3-dihydro-1,3-dioxo-], the IC50 in experiment [1] turned out to be 38 nM; in experiment [2] it was 1.8 nM.
Regarding `COC(=O)c1ccccc1S[C@@H]1CC[C@H](C(=O)c2ccc(-c3ccc(Cl)cc3)cc2)[C@H]1C(=O)O` (relative stereo) [Example 219, Benzoic acid, 2-[[2-carboxy-3-[(4'-chloro[1,1'-biphenyl]-4-yl)carbonyl]cyclopentyl]thio]-, 1-methyl ester, (1α,2β,3α)-], the IC50 stood at 33 nM in experiment [1] and 108 nM in experiment [2].
On to `O=C(CC(C(=O)O)N1CCSCC1)c1ccc(-c2ccc(Cl)cc2)cc1` (stereo not drawn) [Example 184, 4-Thiomorpholineacetic acid, α-[2-(4'-chloro[1,1'-biphenyl]-4-yl)-2-oxoethyl]-, hydrochloride], for which the inhibition at 5 µM in experiment [1] (at 5 μM, read-out: MMP-3 Thiopeptilide % inhibition (I)) worked out at 19%.
Turning to `O=C(CC(Cc1ccccc1)C(=O)O)c1ccc(-c2ccc(Cl)cc2)cc1` (stereo not drawn) [Example 105, [1,1'-Biphenyl]-4-butanoic acid, 4'-chloro-γ-oxo-α-(phenylmethyl)-], in experiment [2], the IC50 turned out to be 900 nM.
Turning to `O=C(O)[C@@H]1[C@@H](Cc2ccccc2)CC[C@H]1C(=O)c1ccc(-c2ccc(Cl)cc2)cc1` (relative stereo) [Example 227, Cyclopentanecarboxylic acid, 2-[(4'-chloro [1,1'-biphenyl]-4-yl)carbonyl]-5-(phenylmethyl)-, (1α,2β,5β)-], the IC50 in experiment [1] was 140 nM.
In the case of `O=C(O)[C@@H]1[C@@H](Sc2ccc(Cl)cc2)CC[C@H]1C(=O)c1ccc(-c2ccc(Cl)cc2)cc1` (relative stereo) [Example 222, Cyclopentanecarboxylic acid, 2-[(4'-chloro [1,1'-biphenyl]-4-yl)carbonyl]-5-[(4-chlorophenyl)thio]-, (1α,2β,5β)-], the IC50 in experiment [1] amounted to 80 nM; in experiment [2] it was 32 nM.
Take `CC(C)CC(CC(O)c1ccc(-c2ccc(Cl)cc2)cc1)C(=O)O` (stereo not drawn) [Example 26, [1,1'-Biphenyl]-4-butanoic acid, 4'-chloro-γ-hydroxy-α-(2-methylpropyl)-]: the IC50 in experiment [1] is 2600 nM; in experiment [2] it was 2400 nM.
